Consider ten molecules from patent publication US4968691A (priority 1986, dated 1990).

For orientation: IC50 means the point on the concentration scale where inhibition reaches its midpoint.

For experiment [1] the following is noted: Lambrecht and Mutschler, Arzneim. forsh. 24 (11) 1725, 1974; cited from earlier work.
For experiment [2], the target named is muscarinic receptors. It is filed as binding, Hooded Lister rats. The note with it: displacement of 0.27 nM 3H-QNB; rat cerebral cortex; 37° C., 30 min; tested as oxalate salts.
In experiment [3] the target is muscarinic receptors. Description: Radio ligand binding: displacement of 3H-Oxotremorine-M (muscarinic agonist) from rat cerebral cortex membranes. Also on record: species or system Hooded Lister rats. The note with it: displacement of 2 nM 3H-OXO-M, 2 mM magnesium chloride, 37° C., 30 min, tested as oxalate salts.

Where two headings read alike, the source gives them in different places.

`COC(=O)C1CN2CCC1CC2` (stereo not shown) [3-Methoxycarbonylquinuclidine]: the cholinergic activity result in experiment [1] is “possess cholinergic activity”. `c1coc(C2CN3CCC2CC3)n1` (racemic) [E5, (±) 3-(1,3-Oxazol-2-yl)-1-azabicyclo[2.2.2]octane]: the IC50 on muscarinic receptors [2] was found to be 27000 nM; on muscarinic receptors [3], 630 nM.

As for `Cc1noc([C@@H]2CN3CCC[C@@H]2C3)n1` (relative stereo) [E6, (±) exo-6-(3-Methyl-1,2,4-oxadiazol-5-yl)-1-azabicyclo [3.2.1]octane], the IC50 at muscarinic receptors [2] was found to be 2300 nM; at muscarinic receptors [3], 41 nM. As to `c1nnc(C2CN3CCC2CC3)o1` (racemic) [E8, (±) 3-(1,3,4-Oxadiazol-2-y.)-1-azabicyclo[2.2.2]octane], the IC50 worked out at 63000 nM on muscarinic receptors [2] and 2800 nM on muscarinic receptors [3].

In the case of `Cc1noc([C@H]2C[C@@H]3CCN(C3)C2)n1` (relative stereo) [E3, (±) exo-3-(3-Methyl-1,2,4-oxadiazol-5-yl)-1-azabicyclo [3.2.1]octane], the IC50 on muscarinic receptors [2] came out at 1840 nM; at muscarinic receptors [3], 25 nM. Regarding `Cc1noc([C@@H]2CN3CC[C@@H]2C3)n1` (relative stereo) [E10, (±) exo-3-(3-Methyl-1,2,4-oxadiazol-5-yl)-1-azabicyclo [2.2.1]heptane], the figures for the IC50 at muscarinic receptors [2] and on muscarinic receptors [3] were 1100 nM and 3.5 nM, respectively.

Take `c1coc([C@H]2C[C@@H]3CCCN(C3)C2)n1` (relative stereo) [E9, (±) exo-3-(1,3-Oxazol-2-yl 1-azabicyclo[3.3.1]nonane]: the results for the IC50 on muscarinic receptors [2] and at muscarinic receptors [3] were 3100 nM and 160 nM, respectively. Take `Cc1nc(C2CN3CCC2CC3)no1` (racemic) [E2, (±) 3-(5-Methyl-1,2,4-oxadiazol-3-yl)-1-azabicyclo [2.2.2]octane]: the IC50 is 17000 nM on muscarinic receptors [2] and 1100 nM on muscarinic receptors [3]. Take `Cc1noc(C2CN3CCC2CC3)n1` (racemic) [E1, (±) 3-(3-Methyl-1,2,4-oxadiazol-5-yl)-1-azabicyclo [2.2.2]octane]: the IC50 at muscarinic receptors [2] was found to be 1840 nM; on muscarinic receptors [3], 15 nM. `Cc1nnc(C2CN3CCC2CC3)o1` (racemic) [E4, (±) 3-(5-Methyl-1,3,4-oxadiazol-2-yl)-1-azabicyclo [2.2.2]octane]: the IC50 is 15000 nM at muscarinic receptors [2] and 1000 nM on muscarinic receptors [3].
